Measurements published in patent US9328093B2, “Selective inhibitors of ubiquitin specific protease 7, the pharmaceutical compositions thereof and their therapeutic applications” (HYBRIGENICS SA, priority 2010, dated 2016).

Assays:
USP5 = molecular target: T1, USP5 (Homo sapiens, UniProt P45974); assay: USP5 activity assay (Ub-AMC substrate); type: biochemical; conditions: Ub-AMC 300 nM, USP5 300 pM
T1 sequence (P45974 1-858): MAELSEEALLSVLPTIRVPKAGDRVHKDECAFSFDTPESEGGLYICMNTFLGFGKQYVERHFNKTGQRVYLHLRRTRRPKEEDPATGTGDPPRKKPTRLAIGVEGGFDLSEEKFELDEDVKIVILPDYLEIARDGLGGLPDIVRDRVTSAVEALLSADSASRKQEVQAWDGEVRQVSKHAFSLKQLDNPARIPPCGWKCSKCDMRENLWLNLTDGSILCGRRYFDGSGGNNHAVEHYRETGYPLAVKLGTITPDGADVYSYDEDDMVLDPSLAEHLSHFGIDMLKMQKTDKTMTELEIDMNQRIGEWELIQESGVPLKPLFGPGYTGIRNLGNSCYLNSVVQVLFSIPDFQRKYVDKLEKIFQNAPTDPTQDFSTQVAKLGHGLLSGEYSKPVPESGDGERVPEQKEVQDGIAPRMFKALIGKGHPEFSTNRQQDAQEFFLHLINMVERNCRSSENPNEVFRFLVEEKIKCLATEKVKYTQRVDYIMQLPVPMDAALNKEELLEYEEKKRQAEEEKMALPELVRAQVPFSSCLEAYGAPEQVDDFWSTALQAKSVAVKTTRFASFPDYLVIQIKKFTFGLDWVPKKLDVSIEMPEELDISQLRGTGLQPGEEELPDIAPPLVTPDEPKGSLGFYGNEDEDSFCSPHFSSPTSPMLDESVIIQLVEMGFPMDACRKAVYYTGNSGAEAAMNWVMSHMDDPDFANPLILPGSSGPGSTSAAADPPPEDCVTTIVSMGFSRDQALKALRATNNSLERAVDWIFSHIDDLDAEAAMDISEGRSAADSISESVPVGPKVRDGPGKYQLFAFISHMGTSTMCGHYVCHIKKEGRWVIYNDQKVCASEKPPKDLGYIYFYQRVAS
Procedure: USP5 was diluted in USP buffer (50 mM Tris HCl; 0.5 mM EDTA; 5 mM DTT; 0.01% Triton X-100; Bovine Serum Albumin 0.05 mg·ml^−1 pH 7.6). Compounds stocks (100 mM) were stored at −20° C. in DMSO. Compounds were tested at different concentrations: from 200 μM to 91 nM.
Reactions were performed as duplicates in Black 384 well plates (small volume microplates; Greiner; 10 μl final reaction volume). The substrate concentration for USP5 was 300 nM Ub-AMC (Boston Biochem). The concentrations of the enzyme (USP5) in specificity assays was 300 pM. The concentrations were determined in order to perform specificity assays under initial velocities at fixed substrate concentration. Compounds were pre-incubated with enzymes for 30 minutes at 25° C. Reactions were initiated by addition of substrate to the plates containing the enzymes (+/− compounds) diluted in assay buffer. Reactions were incubated for 60 minutes at 37° C. Reactions were stopped by adding acetic acid (100 mM final). Readings were performed on a Pherastar Fluorescent Reader (BMG). λ Emission 380 nm; λ Excitation=460 nm. Data (mean values +/− standard deviation) were analyzed as % of control (no compound) and plotted as percentage versus the Log of the compound concentration using GraphPad (Prism). Data were fitted to a sigmoidal model (variable slope).

[1] = tested on: HCT116 colon cancer cells; assay: HCT116 cell viability and proliferation assay (MTS); type: cell-based; conditions: Homo sapiens, HCT-116, 72 h, HCT116, 72 hours, read-out: Cell viability (MTS): HCT116 GI50 Day3
In short: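 HCT116 cells (10^3/well) treated in triplicate 24 h after seeding with 50 nM–100 μM compound, 0.5% final DMSO, for 72 h at 37 °C. Viability by MTS (2 h), absorbance 492 nm; GI50 from sigmoidal variable-slope fit, mean of three independent experiments.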

Caspase 3 = molecular target: T2, Caspase 3 (Homo sapiens, UniProt P42574); assay: Caspase 3 activity assay (Ac-DEVD-AMC substrate); type: biochemical; conditions: Ac-DEVD-AMC 250 nM, Caspase 3 1.6 nM
T2 sequence (P42574 29-175 limits assumed): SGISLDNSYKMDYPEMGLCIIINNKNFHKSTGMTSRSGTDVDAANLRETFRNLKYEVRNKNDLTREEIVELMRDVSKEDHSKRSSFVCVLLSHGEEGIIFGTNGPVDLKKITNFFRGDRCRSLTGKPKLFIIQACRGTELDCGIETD
T2 sequence (P42574 176-277 limits assumed): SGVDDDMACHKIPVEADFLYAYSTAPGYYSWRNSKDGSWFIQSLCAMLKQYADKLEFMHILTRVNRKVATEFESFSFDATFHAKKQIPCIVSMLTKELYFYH
Procedure: Caspase 3 was diluted in Caspase 3 buffer (100 mM Hepes pH 7.5; 10% sucrose; 0.1% CHAPS). Compounds stocks (100 mM) were stored at −20° C. in DMSO. Compounds were tested at different concentrations: from 200 μM to 91 nM.
Reactions were performed as duplicates in Black 384 well plates (small volume microplates; Greiner; 10 μl final reaction volume). The substrate concentration for caspase 3 specificity assay was 250 nM (Ac-DEVD-AMC; Promega). The concentration of the enzyme (Caspase 3) in specificity assays was 1.6 nM. The concentrations were determined in order to perform specificity assays under initial velocities at fixed substrate concentration. Compounds were pre-incubated with enzymes for 30 minutes at 25° C. Reactions were initiated by addition of substrate to the plates containing the enzymes (+/− compounds) diluted in assay buffer. Reactions were incubated for 60 minutes at 37° C. Reactions were stopped by adding acetic acid (100 mM final). Readings were performed on a Pherastar Fluorescent Reader (BMG). λ Emission 380 nm; λ Excitation=460 nm. Data (mean values+/− standard deviation) were analyzed as % of control (no compound) and plotted as percentage versus the Log of the compound concentration using GraphPad (Prism). Data were fitted to a sigmoidal model (variable slope).

| IC50 (USP5) | GI50 [1] | IC50 (Caspase 3) | Structure (SMILES) |
| --- | --- | --- | --- |
| > 200 µM | 4.3 µM | > 200 µM | O=C(NCc1cccc(CN2CCCC2)c1)c1ccc2c(Cl)c3c(nc2c1)CCCC3 [Example 18, 9-chloro-N-(3-(pyrrolidin-1-ylmethyl)benzyl)-5,6,7,8-tetrahydroacridine-3-carboxamide] |
| > 200 µM | 3.3 µM | > 200 µM | COc1ccc(CN2CCC(CNC(=O)c3ccc4c(Cl)c5c(nc4c3)CCCC5)CC2)cc1 [Example 22, 9-chloro-N-((1-(4-methoxybenzyl)piperidin-4-yl)methyl)-5,6,7,8-tetrahydroacridine-3-carboxamide] |
| > 200 µM | 6.9 µM | > 200 µM | CN1CCCC1CCNC(=O)c1ccc2c(Cl)c3c(nc2c1)CCCC3 (stereo not drawn) [Example 17, 9-chloro-N-(2-(1-methylpyrrolidin-2-yl)ethyl)-5,6,7,8-tetrahydroacridino-3-carboxamide] |
| > 200 µM | 5.6 µM | > 200 µM | O=C(NCC(CN1CCCC1)C(O)c1ccccc1)c1ccc2c(Cl)c3c(nc2c1)CCCC3 (stereo not drawn) [Example 25, 9-chloro-N-(3-hydroxy-3-phenyl-2-pyrrolidin-1-ylmethylpropyl)-5,6,7,8-tetrahydroacridine-3-carboxamide] |
| > 200 µM | 8.3 µM | > 200 µM | O=C(NCC1CCNCC1)c1ccc2c(Cl)c3c(nc2c1)CCCC3 [Example 24, 9-chloro-N-((piperidin-4-yl)methyl)-5,6,7,8-tetrahydroacridine-3-carboxamide] |
| > 200 µM | 8.4 µM | > 200 µM | CC1CCCCN1CCCNC(=O)c1ccc2c(Cl)c3c(nc2c1)CCCC3 (stereo not drawn) [Example 20, 9-chloro-N-(3-(2-methylpiperidin-1-yl)propyl)-516,7,8-tetrahydroacridine-3-carboxamide] |
| > 200 µM | 1.8 µM | > 200 µM | CN(C)c1ccc(CN2CCC(CNC(=O)c3ccc4c(Cl)c5c(nc4c3)CCCC5)CC2)cc1 [Example 23] |
| > 200 µM | 3.5 µM | > 200 µM | O=C(NCc1ccc(CN2CCCC2)cc1)c1ccc2c(Cl)c3c(nc2c1)CCCC3 [Example 21, 9-chloro-N-(4-(pyrrolidin-1-ylmethyl)benzyl)-5,6,7,8-tetrahydroacridine-3-carboxamide] |
| > 200 µM | 4.1 µM | > 200 µM | O=C(Nc1cccc(CN2CCCC2)c1)c1ccc2c(Cl)c3c(nc2c1)CCCC3 [Example 19, 9-chloro-N-(3-(pyrrolidin-1-ylmethyl)phenyl)-5.6,7,8-tetrahydroacridine-3-carboxamide] |
